Here are results for 1 compound from patent US20180185374A1, “INHIBITORS OF MTOR KINASE AS ANTI-VIRAL AGENTS” (THE TRUSTEES OF PRINCETON UNIVERSITY, priority 2009, published 2018).

Each structure is given as a SMILES string.

One data set concerns rpS6. The experiment in a line: rpS6 phosphorylation in HCMV-infected fibroblasts, Western blot. The data set is classed as cell-based, human. The note with it: rapamycin 20 nM, Torin1 250 nM; 3 PFU/cell. The protocol: FIG. 4. Rapamycin-resistant mTOR activity is required for 4EBP1 phosphorylation and eIF4F complex integrity during HCMV infection. Serum-starved confluent human fibroblasts were infected with HCMV at a multiplicity of 3 PFU/cell. […] (A) At 48 hpi the phosphorylation status of mTORC1 targets was assessed by Western blot assay by using antibodies to phosphorylated targets (4EBP1-PT^37/46 and rpS6-PS^235/6) and total proteins. Tubulin was assayed as a loading control. (B) Same as above (A) except that cells were harvested at the indicated times. (C and D) After mock infection (M) or infection with HCMV (WT) at a multiplicity of 3 PFU/cell, cultures were harvested at the indicated times. Equivalent amounts of protein from each sample were incubated with m^7GTP-Sepharose, and the isolated protein complexes were analyzed by Western blotting using the indicated antibodies to the eIF4F complex and 4EBP1. In all cases the results are representative of at least two independent experiments. lys, lysate.
HCMV infection induces mTORC1 activity, but the phosphorylation of mTORC1 targets is differentially sensitive to the mTORC1 inhibitor rapamycin. […] Total 4EBP1, rpS6, and tubulin levels were monitored to control for protein recovery. […]
On the technique in general: A western blot detects proteins with antibodies after separation by electrophoresis.

The subject of another data set is MCMV. As to the kind of experiment: MCMV replication in MEFs, cell-free virus by TCID50. The data set is classed as cell-based, murine cytomegalovirus. The note with it: Torin1 250 nM.
Data set [1] has as its system HCMV. As to the kind of experiment: HCMV multistep growth in serum-starved human fibroblasts, cell-free virus by TCID50. The data set is classed as cell-based, human cytomegalovirus.
A further data set has as its system cells. The note with it: concentrations of up to 500 nM; previous reports; cited from earlier work.
The subject of a further data set is 4EBP1. As to the kind of experiment: 4EBP1 phosphorylation in HSV-1-infected MEFs, Western blot. The data set is classed as cell-based, mouse. The note with it: 3 PFU/cell, 8 hpi.
Data set [2] deals with HCMV. As to the kind of experiment: HCMV entry: cell-associated viral DNA at 2 hpi by real-time PCR. The data set is classed as cell-based, human cytomegalovirus. The note with it: 250 nM, 24 h pretreatment or after adsorption, 3 PFU/cell. On the procedure: FIG. 2. […] Serum-starved confluent fibroblasts were infected with HCMV at a multiplicity of 3 PFU/cell. […] Control cultures received the vehicle in which Torin1 was dissolved (NT). At 2 hpi cells were harvested, and cell-associated viral DNA was quantified by real-time PCR analysis. Error bars represent the standard errors of the means from two independent experiments performed in duplicate. […] The level of IE1 was determined at 6 hpi by a Western blot assay using an IE1-specific monoclonal antibody. The image is representative of two independent experiments. […] The expression of a GFP marker gene present in the viral genome was monitored at 24 h after infection in the presence or absence of drug.
Determination of viral DNA and transcript accumulation in infected cells. The accumulation of viral DNA during HCMV infection was monitored by quantitative PCR (qPCR) as described previously (Terhune, et al. (2007) J. Virol. 81:3109-3123).
Briefly, primary human fibroblasts were infected with BADinGFP at a multiplicity of 0.05 PFU/cell. At the indicated times, cells were harvested by scraping them into medium and were stored as frozen cell pellets until analysis. Cell pellets were resuspended in 500 μl of a solution containing 400 mM NaCl, 10 mM Tris (pH 7.5), and 10 mM EDTA. […] For each sample, DNA was quantified by using a NanoDrop spectrophotometer (Thermo Scientific). […]

Another data set has as its system eIF4F complex. As to the kind of experiment: m7G-Sepharose cap-binding assay, MCMV-infected MEFs. The format is cell-based, mouse. The note with it: Torin1 250 nM, 48 hpi. On the procedure: FIG. 7. […] At 6 days post infection the amount of MCMV in cell-free supernatants was determined by the TCID50 method. The error bars represent the standard errors of the means from three independent experiments, each performed in duplicate. […] At 48 hpi equal amounts of protein from cell lysates were incubated with m^7G-Sepharose. The presence of eIF4F complex components bound by the cap analog was determined by Western blotting. The results are representative of two independent experiments.
We first investigated the requirement for mTORC2 for the replication of MCMV. […] Finally, the cells were confirmed to lack an intact Rictor locus when assayed by PCR (FIG. 6C). We also employed Akt1/Akt2-null MEFs to evaluate a possible role for the Akt kinase, one of the targets of mTORC2. […] Again, the cells were confirmed to lack Akt by Western blot assay (FIG. 6F). […] 4EBP1 functions to inhibit eIF4F complex assembly unless inactivated by mTORC1-mediated phosphorylation. […] Finally, that 4EBP1 was not detected in lysates of these cells by Western blot assay confirmed the phenotype of the MEFs.

With `CCC(=O)N1CCN(c2ccc(-n3c(=O)ccc4cnc5ccc(-c6cnc7ccccc7c6)cc5c43)cc2C(F)(F)F)CC1` [Torin1], in the data set with rpS6, the “induction of rpS6 phosphorylation during HCMV infection” value is given as “markedly inhibited”. The MCMV replication entry in the data set with MCMV (4EBP1-null MEFs, rapamycin 20 nM, 6 days post infection) is given as “no longer capable of inhibiting”; in the data set on MCMV (Akt1/Akt2-null MEFs), “Torin-sensitive”; with MCMV (Rictor-null MEFs, 6 days post infection), “effectively inhibited”; in the data set with MCMV (wild-type MEFs, 0.05 PFU/cell, rapamycin 20 nM) it was “inhibited MCMV replication”. Further, the “reduction of HCMV yield” value in the data set with HCMV [1] (day 10, 0.05 PFU/cell, rapamycin 20 nM, Torin1 250 nM) is on record as “about 160 fold”. In addition, the IC50 with HCMV [1] (read-out: 50% inhibitory concentration (IC50) for production of HCMV progeny, 8 days post infection) is around 0.06 µM. Further, the cell killing entry in the data set with cells was “does not kill cells”. Further, in the data set on 4EBP1, the “phosphorylation of 4EBP1 during HSV-1 infection” value was “inhibited”. The “level of cell-associated viral DNA” value with HCMV [2] is “not influenced”. Besides, the “formation of the eIF4F complex” value is “no such effect was observed” in the data set on eIF4F complex (4EBP1-null MEFs) and “inhibited the formation of the eIF4F complex” in the data set on eIF4F complex (control MEFs).
